# Patent US20110082130A1 (LIGAND PHARMACEUTICALS, INC., priority 2006, published 2011)
# Biological target: T1, chimeric human H3 receptor (Homo sapiens, UniProt Q9Y5N1)
# T1 construct: made in house; host or cells: Sf9 insect cells (baculovirus); P2 membrane preparation
# Assay: Chimeric human H3 receptor GTP binding assay (agonist-stimulated GTP-gamma35S binding, Example 7)
# Assay type: biochemical
# Conditions: assay of Example 7; "*" in Ki of Table II
# How it was run: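 Sf9 membranes co-expressing chimeric human H3 receptor and heterotrimeric G-protein, 35 μg/tube, in pH 7.4 Tris buffer with 10 μM GDP. Test compounds (10^−10–10^−6 M) competed against 1 μM histamine, […] GTP-gamma35S, 60 min at room temperature. Filter-bound radioactivity counted; IC50 converted to Ki by Cheng-Prusoff. Agonism/inverse agonism tested without histamine (EC50).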
# T1 sequence (Q9Y5N1 with tags, fused parts or gaps): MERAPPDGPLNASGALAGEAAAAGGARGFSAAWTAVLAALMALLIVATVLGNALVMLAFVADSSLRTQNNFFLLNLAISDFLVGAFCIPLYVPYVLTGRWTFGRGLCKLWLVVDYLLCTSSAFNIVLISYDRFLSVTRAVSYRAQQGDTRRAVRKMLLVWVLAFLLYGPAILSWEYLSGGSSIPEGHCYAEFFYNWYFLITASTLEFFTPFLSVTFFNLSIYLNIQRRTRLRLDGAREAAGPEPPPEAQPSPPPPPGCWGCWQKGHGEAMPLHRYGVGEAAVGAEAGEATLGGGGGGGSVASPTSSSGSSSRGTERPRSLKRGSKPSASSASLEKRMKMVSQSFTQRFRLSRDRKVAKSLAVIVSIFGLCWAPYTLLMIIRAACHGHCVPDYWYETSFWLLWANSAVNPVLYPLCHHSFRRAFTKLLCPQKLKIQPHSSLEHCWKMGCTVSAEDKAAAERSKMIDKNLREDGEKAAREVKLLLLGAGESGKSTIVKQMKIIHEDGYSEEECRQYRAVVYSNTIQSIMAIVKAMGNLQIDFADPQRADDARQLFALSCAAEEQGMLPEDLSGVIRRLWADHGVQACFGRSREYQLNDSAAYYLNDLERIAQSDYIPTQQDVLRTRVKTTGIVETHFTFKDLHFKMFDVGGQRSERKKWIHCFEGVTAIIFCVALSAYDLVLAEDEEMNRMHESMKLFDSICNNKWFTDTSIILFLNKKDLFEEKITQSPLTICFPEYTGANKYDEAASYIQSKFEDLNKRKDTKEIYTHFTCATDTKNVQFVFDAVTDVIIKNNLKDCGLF
row,Ki,SMILES
1,< 1 µM,"O=C(CN1CCc2nn(-c3ncc(Br)cn3)cc2C1)N1CCN(C2CCC2)CC1 [Compound 287, 2-(5-bromopyrimidin-2-yl)-5-[2-(4-cyclobutylpiperazin-1-yl)-2-oxoethyl]-4,5,6,7-tetrahydro-2H-pyrazolo[4,3-c]pyridine]"
2,< 1 µM,"Cc1ccc(-n2ncc3c2CCN(CC(=O)N2CCN(C4CCC4)CC2)C3)nn1 [Compound 288, 5-[2-(4-cyclobutylpiperazin-1-yl)-2-oxoethyl]-1-(6-methylpyridazin-3-yl)-4,5,6,7-tetrahydro-1H-pyrazolo[4,3-c]pyridine]"
3,< 1 µM,"Cc1cnc(-n2cc3c(n2)CCN(CC(=O)N2CCN(C4CCC4)CC2)C3)nc1 [Compound 289, 5-[2-(4-cyclobutylpiperazin-1-yl)-2-oxoethyl]-2-(5-methylpyrimidin-2-yl)-4,5,6,7-tetrahydro-2H-pyrazolo[4,3-c]pyridine]"
4,< 1 µM,"COc1ccc(-n2ncc3c2CCN(CC(=O)N2CCN(C4CCC4)CC2)C3)nn1 [Compound 290, 5-[2-(4-cyclobutylpiperazin-1-yl)-2-oxoethyl]-1-(6-methoxypyridazin-3-yl)-4,5,6,7-tetrahydro-1H-pyrazolo[4,3-c]pyridine]"
5,< 1 µM,"O=C(CN1CCc2c(cnn2-c2ccc(O)nn2)C1)N1CCN(C2CCC2)CC1 [Compound 291, 6-{5-[2-(4-cyclobutylpiperazin-1-yl)-2-oxoethyl]-4,5,6,7-tetrahydro-1H-pyrazolo[4,3-c]pyridin-1-yl}pyridazin-3-ol]"
6,< 1 µM,"O=C(CN1CCc2nc(C(F)(F)F)ncc2C1)N1CCN(C2CCC2)CC1 [Compound 292, 6-[2-(4-cyclobutylpiperazin-1-yl)-2-oxoethyl]-2-(trifluoromethyl)-5,6,7,8-tetrahydropyrido[4,3-d]pyrimidine]"
7,< 1 µM,"Cn1cc2c(n1)CCN(CC(=O)N1CCN(C3CCC3)CC1)C2 [Compound 293, 5-[2-(4-cyclobutylpiperazin-1-yl)-2-oxoethyl]-2-methyl-4,5,6,7-tetrahydro-2H-pyrazolo[4,3-c]pyridine]"
8,< 1 µM,"O=C(CN1CCc2nc(-c3ccccc3)sc2C1)N1CCN(C2CCC2)CC1 [Compound 294, 5-[2-(4-cyclobutylpiperazin-1-yl)-2-oxoethyl]-2-phenyl-4,5,6,7-tetrahydro[1,3]thiazolo [5,4-c]pyridine]"
9,< 1 µM,"O=C(CN1CCc2nc(-c3cccc(Cl)c3)sc2C1)N1CCN(C2CCC2)CC1 [Compound 295, 2-(3-chlorophenyl)-5-[2-(4-cyclobutylpiperazin-1-yl)-2-oxoethyl]-4,5,6,7-tetrahydro[1,3]thiazolo [5,4-c]pyridine]"
10,< 1 µM,"O=C(CN1CCc2nc(-c3ccc(Cl)cc3)sc2C1)N1CCN(C2CCC2)CC1 [Compound 296, 2-(4-chlorophenyl)-5-[2-(4-cyclobutylpiperazin-1-yl)-2-oxoethyl]-4,5,6,7-tetrahydro[1,3]thiazolo [5,4-c]pyridine]"
11,< 1 µM,"O=C(CN1CCc2nc(-c3ccc(F)cc3)sc2C1)N1CCN(C2CCC2)CC1 [Compound 297, 5-[2-(4-cyclobutylpiperazin-1-yl)-2-oxoethyl]-2-(4-fluorophenyl)-4,5,6,7-tetrahydro[1,3]thiazolo [5,4-c]pyridine]"
12,< 1 µM,"O=C(CN1CCc2nc(-c3cccc(F)c3)sc2C1)N1CCN(C2CCC2)CC1 [Compound 298, 5-[2-(4-cyclobutylpiperazin-1-yl)-2-oxoethyl]-2-(3-fluorophenyl)-4,5,6,7-tetrahydro[1,3]thiazolo [5,4-c]pyridine]"
13,< 1 µM,"O=C(CN1CCc2nc(-c3ccccc3F)sc2C1)N1CCN(C2CCC2)CC1 [Compound 299, 5-[2-(4-cyclobutylpiperazin-1-yl)-2-oxoethyl]-2-(2-fluorophenyl)-4,5,6,7-tetrahydro[1,3]thiazolo [5,4-c]pyridine]"
14,< 1 µM,"O=C(CN1CCc2nc(-c3ccc4ccccc4c3)sc2C1)N1CCN(C2CCC2)CC1 [Compound 300, 5-[2-(4-cyclobutylpiperazin-1-yl)-2-oxoethyl]-2-(2-naphthyl)-4,5,6,7-tetrahydro[1,3]thiazolo [5,4-c]pyridine]"
15,< 1 µM,"Cc1ccc(-c2nc3c(s2)CN(CC(=O)N2CCN(C4CCC4)CC2)CC3)c(F)c1 [Compound 301, 5-[2-(4-cyclobutylpiperazin-1-yl)-2-oxoethyl]-2-(2-fluoro-4-methylphenyl)-4,5,6,7-tetrahydro[1,3]thiazolo [5,4-c]pyridine]"
16,< 1 µM,"Cc1ccc(F)c(-c2nc3c(s2)CN(CC(=O)N2CCN(C4CCC4)CC2)CC3)c1 [Compound 302, 5-[2-(4-cyclobutylpiperazin-1-yl)-2-oxoethyl]-2-(2-fluoro-5-methylphenyl)-4,5,6,7-tetrahydro[1,3]thiazolo [5,4-c]pyridine]"
17,< 1 µM,"Cc1cc(-c2nc3c(s2)CN(CC(=O)N2CCN(C4CCC4)CC2)CC3)ccc1F [Compound 303, 5-[2-(4-cyclobutylpiperazin-1-yl)-2-oxoethyl]-2-(4-fluoro-3-methylphenyl)-4,5,6,7-tetrahydro[1,3]thiazolo [5,4-c]pyridine]"
18,< 1 µM,"Cc1cccc(-c2nc3c(s2)CN(CC(=O)N2CCN(C4CCC4)CC2)CC3)c1 [Compound 304, 5-[2-(4-cyclobutylpiperazin-1-yl)-2-oxoethyl]-2-(3-methylphenyl)-4,5,6,7-tetrahydro[1,3]thiazolo [5,4-c]pyridine]"
19,< 1 µM,"Cc1ccc(-c2nc3c(s2)CN(CC(=O)N2CCN(C4CCC4)CC2)CC3)cc1 [Compound 305, 5-[2-(4-cyclobutylpiperazin-1-yl)-2-oxoethyl]-2-(4-methylphenyl)-4,5,6,7-tetrahydro[1,3]thiazolo [5,4-c]pyridine]"
20,< 1 µM,"CC(C)c1cccc(-c2nc3c(s2)CN(CC(=O)N2CCN(C4CCC4)CC2)CC3)c1 [Compound 306, 5-[2-(4-cyclobutylpiperazin-1-yl)-2-oxoethyl]-2-(3-isopropylphenyl)-4,5,6,7-tetrahydro[1,3]thiazolo [5,4-c]pyridine]"
21,< 1 µM,"CC(C)c1ccc(-c2nc3c(s2)CN(CC(=O)N2CCN(C4CCC4)CC2)CC3)cc1 [Compound 307, 5-[2-(4-cyclobutylpiperazin-1-yl)-2-oxoethyl]-2-(4-isopropylphenyl)-4,5,6,7-tetrahydro[1,3]thiazolo [5,4-c]pyridine]"
22,< 1 µM,"Cc1ccc(-c2nc3c(s2)CN(CC(=O)N2CCN(C4CCC4)CC2)CC3)cc1C [Compound 308, 5-[2-(4-cyclobutylpiperazin-1-yl)-2-oxoethyl]-2-(3,4-dimethylphenyl)-4,5,6,7-tetrahydro[1,3]thiazolo [5,4-c]pyridine]"
23,< 1 µM,"CCCCc1ccc(-c2nc3c(s2)CN(CC(=O)N2CCN(C4CCC4)CC2)CC3)cc1 [Compound 309, 2-(4-butylphenyl)-5-[2-(4-cyclobutylpiperazin-1-yl)-2-oxoethyl]-4,5,6,7-tetrahydro[1,3]thiazolo [5,4-c]pyridine]"
24,< 1 µM,"Cc1cc(C)cc(-c2nc3c(s2)CN(CC(=O)N2CCN(C4CCC4)CC2)CC3)c1 [Compound 310, 5-[2-(4-cyclobutylpiperazin-1-yl)-2-oxoethyl]-2-(3,5-dimethylphenyl)-4,5,6,7-tetrahydro[1,3]thiazolo [5,4-c]pyridine]"
25,< 1 µM,"CCc1ccc(-c2nc3c(s2)CN(CC(=O)N2CCN(C4CCC4)CC2)CC3)cc1 [Compound 311, 5-[2-(4-cyclobutylpiperazin-1-yl)-2-oxoethyl]-2-(4-ethylphenyl)-4,5,6,7-tetrahydro[1,3]thiazolo [5,4-c]pyridine]"
